This passage reports chemical recovery results from the supplement of paper PMC10702517.

The data set is described as follows: chemical recovery from spiked human plasma; higher = better extraction. The conditions noted are these: pooled human plasma.
The mark [1] stands for this setting: extraction method: PES+SPE (3 d PDMS equilibration then HLB SPE).
The mark [2] stands for this setting: extraction method: SPE only (HLB 96-well).
The mark [3] stands for this setting: extraction method: solvent precipitation (ACN + hexane).
[4] abbreviates: extraction method: SPE only (HLB 96-well), PES comparison experiment.

± gives the standard deviation.

As for `O=C(O)c1ccccc1C(=O)OCc1ccccc1` [Monobenzyl-phthalate], the chemical recovery stood at 59.6 ± 9.9% under setting [1], 57.7 ± 4.3% under setting [2] and 65.3 ± 7.2% under setting [3].
For `CN(C)C(=O)Nc1ccc(Cl)cc1` [Monuron] the same measures were 60.2 ± 3.6%, 49.6 ± 3.1% and 74.2 ± 1.8%.
`COc1c(C(C)(C)C)cc([N+](=O)[O-])c(C)c1[N+](=O)[O-]` [Musk ambrette] showed a chemical recovery under setting [2] of 2.96 ± 0.74%.
As for `CC(=O)c1c(C)c([N+](=O)[O-])c(C(C)(C)C)c([N+](=O)[O-])c1C` [Musk ketone], the chemical recovery is, setting by setting: under setting [2], 1.17 ± 0.25%; under setting [3], 15.5 ± 3.3%.
In the case of `Cc1c([N+](=O)[O-])c(C)c([N+](=O)[O-])c(C(C)(C)C)c1[N+](=O)[O-]` [Musk xylene], the chemical recovery runs as follows: under setting [2], 97.1 ± 31%; under setting [3], 33.5 ± 9.3%.
`CCN(CC)c1ccccc1` [N,N-Diethylaniline]: the chemical recovery was found to be 0.987 ± 1.6% under setting [1], 5.76 ± 3.4% under setting [2] and 0.0912 ± 0.079% under setting [3].
In the case of `CCCCCCCCCC(=O)N(C)C` [N,N-Dimethyldecan-1-amide], the chemical recovery amounted to 27.7 ± 10% under setting [1] and 13.6 ± 0.95% under setting [2].
As for `CCCCCCCCCCCCN(C)C` [N,N-Dimethyldodecylamine], the chemical recovery by setting is: under setting [4], 42.1 ± 8.8%; under setting [3], 78.3 ± 23%.
On to `CC(C)CC(C)Nc1ccc(Nc2ccccc2)cc1` (centres undefined) [N-(1,3-Dimethylbutyl)-N'-phenyl-1,4-phenylenediamine], for which the chemical recovery under setting [2] was found to be 1.42 ± 1.6%.
For `C=C(C)C(=O)NCCCN(C)C` [N-(3-Dimethylamino)propyl)methacrylamide], the chemical recovery under setting [1] turned out to be 42.3 ± 14% and the chemical recovery under setting [2] was 39.9 ± 3.7%.
Turning to `CC(=O)Nc1c(C)n(C)n(-c2ccccc2)c1=O` [N-Acetyl-4-aminoantipyrine], the chemical recovery was 44.5 ± 5.9% under setting [1] and 43.1 ± 2.7% under setting [2].
For `CCNC(=O)c1cccc(C)c1` [N-Ethyl-3-methylbenzamide], the chemical recovery worked out at 29.2 ± 9.2% under setting [1], 37.3 ± 0.9% under setting [2] and 57.5 ± 1% under setting [3].
`CCNS(=O)(=O)C(F)(F)C(F)(F)C(F)(F)C(F)(F)C(F)(F)C(F)(F)C(F)(F)C(F)(F)F` [N-Ethylperfluorooctane-sulfonamide]: under setting [2], the chemical recovery is 2.91 ± 0.86%.
`CCCCCCCCCCCC(=O)NCCO` [N-Lauroylethanolamine]: the chemical recovery by setting is: under setting [2], 47.5 ± 6%; under setting [3], 74.2 ± 3.9%.
Regarding `CN1CCCC1=O` [N-Methyl-2-pyrrolidone], under setting [3], the chemical recovery is 1.36 ± 2.4%.
Turning to `CN(C1CCCCC1)C1CCCCC1` [N-Methyl-dicyclohexylamine], the chemical recovery runs as follows: under setting [1], 0.654 ± 0.19%; under setting [2], 30.9 ± 1.6%; under setting [3], 50.9 ± 7.1%.
For `CNC(=O)c1ccccc1` [N-Methylbenzamide] the same measures were 35 ± 8.6%, 38.2 ± 3% and 88 ± 3.1%.
For `CNS(=O)(=O)c1ccccc1` [N-Methylbenzenesulfonamide], under setting [3], the chemical recovery turned out to be 77.4 ± 3.4%.
In the case of `CCN(CC)C(=O)C(C)Oc1cccc2ccccc12` (centres undefined) [Napropamide], under setting [3], the chemical recovery is 70.6 ± 2.5%.
Turning to `CN1CCC[C@H]1c1cccnc1` [Nicotine], the chemical recovery by setting is: under setting [1], 0.141 ± 0.063%; under setting [2], 0.399 ± 0.15%; under setting [3], 49.1 ± 4.3%.
`O=C1CN(/N=C/c2ccc([N+](=O)[O-])o2)C(=O)N1` [Nitrofurantoin]: the chemical recovery under setting [4] is 54.8 ± 8.6%.
As for `CCn1cc(C(=O)O)c(=O)c2cc(F)c(N3CCNCC3)cc21` [Norfloxacin], under setting [3], the chemical recovery is 63.3 ± 5.8%.
On to `CC1(C)CC(NC(=O)c2cccc(C(=O)NC3CC(C)(C)NC(C)(C)C3)c2)CC(C)(C)N1` [Nylostab-S-EED], for which the chemical recovery under setting [3] is 70.4 ± 5.2%.
In turn, `CCCCCCCCOC(=O)CCc1cc(C(C)(C)C)c(O)c(C(C)(C)C)c1` [Octyl-3,5-di-tert-butyl-4-hydroxyhydrocinnamate] displayed a chemical recovery under setting [4] of 0.29 ± 0.58%.
Consider `CCCCC(CC)COC(=O)C=Cc1ccc(OC)cc1` (centres undefined) [Octyl-methoxycinnamate], for which the chemical recovery was found to be 10.2 ± 2.1% under setting [2] and 141 ± 20% under setting [3].
For the compound `COc1ccc2[nH]c(SCc3ncc(C)c(OC)c3C)nc2c1` [Omeprazole-sulfide], the chemical recovery is 19.8 ± 2.5% under setting [1], 42 ± 3.9% under setting [2] and 72.5 ± 3.6% under setting [3].
Consider `Cc1nccn1CC1CCc2c(c3ccccc3n2C)C1=O` (centres undefined) [Ondansetron], for which the chemical recovery is 15.3 ± 3.4% under setting [1], 32.6 ± 2% under setting [2], 45.7 ± 7.4% under setting [4] and 73.2 ± 2.9% under setting [3].
On to `CCCCCCCCCCC[C@@H](C[C@@H]1OC(=O)[C@H]1CCCCCC)OC(=O)[C@H](CC(C)C)NC=O` [Orlistat], for which the chemical recovery was determined as 3.21 ± 3.3% under setting [2] and 6 ± 3.7% under setting [4].
`CNC(=O)O/N=C(\SC)C(=O)N(C)C` [Oxamyl]: the chemical recovery by setting is: under setting [2], 28 ± 2.6%; under setting [3], 6.16 ± 4.2%.
For the compound `NC(=O)N1c2ccccc2CC(=O)c2ccccc21` [Oxcarbazepine], the chemical recovery under setting [3] was 0.126 ± 0.22%.
`CCCCC(CC)COC(=O)c1ccc(N(C)C)cc1` (centres undefined) [Padimate-O]: the chemical recovery under setting [2] is 22.8 ± 4.1%.
On the same count and under the same terms, the figure for `CCCCCCCCCCCCCCCC(=O)NCCO` [Palmitoylethanolamide] is 33.5 ± 8.8%.
For `CCCC(Cn1cncn1)c1ccc(Cl)cc1Cl` (centres undefined) [Penconazole], the chemical recovery is, setting by setting: under setting [1], 51.3 ± 5.9%; under setting [2], 65.9 ± 1.6%; under setting [3], 67.7 ± 4.2%.
`O=C(Nc1ccccc1)N(Cc1ccc(Cl)cc1)C1CCCC1` [Pencycuron]: the chemical recovery by setting is: under setting [1], 54 ± 6.3%; under setting [2], 28.4 ± 3.3%.
For the compound `COc1cnc(OC)n2nc(NS(=O)(=O)c3c(OCC(F)F)cccc3C(F)(F)F)nc12` [Penoxsulam], the chemical recovery runs as follows: under setting [1], 53.1 ± 7.8%; under setting [2], 42.2 ± 4.3%; under setting [3], 78.9 ± 3.6%.
`CCc1c(Br)c(Br)c(Br)c(Br)c1Br` [Pentabromoethylbenzene]: the chemical recovery worked out at 53.3 ± 3.7% under setting [1] and 3.34 ± 1.2% under setting [2].
`Cc1c(Br)c(Br)c(Br)c(Br)c1Br` [Pentabromotoluene] yielded a chemical recovery under setting [1] of 61.6 ± 3.7% and a chemical recovery under setting [2] of 6.76 ± 2.3%.
As to `NC(=O)C(F)(F)C(F)(F)F` [Pentafluoropropionamide], the chemical recovery under setting [1] stood at 9.12 ± 7.6%, the chemical recovery under setting [2] stood at 0.923 ± 0.9% and the chemical recovery under setting [3] was determined as 0.174 ± 0.24%.
As to `CCCC(C)C1(CC)C(=O)NC(=O)NC1=O` (centres undefined) [Pentobarbital], the chemical recovery reads like this: under setting [1], 49.6 ± 5.1%; under setting [2], 43.8 ± 2%; under setting [3], 75.7 ± 6.9%.
As to `O=C(O)C(F)(F)C(F)(F)C(F)(F)OC(F)(F)F` [Perfluoro-4-methoxybutanoic-acid], the chemical recovery by setting is: under setting [1], 43.5 ± 3.9%; under setting [2], 36.7 ± 2.8%; under setting [3], 78.7 ± 3.5%.
For `O=S(=O)(O)C(F)(F)C(F)(F)C(F)(F)C(F)(F)F` [Perfluorobutanesulfonic-acid] the same measures were 49.5 ± 3.7%, 45.3 ± 3.3% and 81.9 ± 2.1%.
For `O=S(=O)(O)C(F)(F)C(F)(F)C(F)(F)C(F)(F)C(F)(F)C(F)(F)C(F)(F)F` [Perfluoroheptanesulfonic-acid], the chemical recovery under setting [1] turned out to be 38.6 ± 6.2%, the chemical recovery under setting [2] worked out at 35.6 ± 2% and the chemical recovery under setting [3] amounted to 61.6 ± 3.8%.
As to `O=S(=O)(O)C(F)(F)C(F)(F)C(F)(F)C(F)(F)C(F)(F)C(F)(F)F` [Perfluorohexanesulfonic-acid], the chemical recovery is, setting by setting: under setting [1], 40.9 ± 4.1%; under setting [2], 34.4 ± 2.7%.
As to `O=C(O)C(F)(F)C(F)(F)C(F)(F)C(F)(F)C(F)(F)F` [Perfluorohexanoic acid], the chemical recovery was 40.2 ± 4.7% under setting [1], 35.5 ± 3.9% under setting [2], 44.4 ± 8.7% under setting [4] and 75.3 ± 4.1% under setting [3].
Take `O=P(O)(O)C(F)(F)C(F)(F)C(F)(F)C(F)(F)C(F)(F)C(F)(F)F` [Perfluorohexylphosphonic-acid]: the chemical recovery under setting [1] came to 37.5 ± 6%, the chemical recovery under setting [2] came out at 31.2 ± 4.6% and the chemical recovery under setting [3] came out at 26.7 ± 9.3%.
As to `O=C(O)C(F)(F)C(F)(F)C(F)(F)C(F)(F)C(F)(F)C(F)(F)C(F)(F)C(F)(F)F` [Perfluorononanoic-acid], the chemical recovery under setting [2] came out at 8.32 ± 1.8% and the chemical recovery under setting [3] was determined as 66.3 ± 5.1%.
Regarding `NS(=O)(=O)C(F)(F)C(F)(F)C(F)(F)C(F)(F)C(F)(F)C(F)(F)C(F)(F)C(F)(F)F` [Perfluorooctanesulfonamide], the chemical recovery reads like this: under setting [2], 32 ± 4.9%; under setting [4], 38.8 ± 9.3%.
On to `O=S(=O)(O)C(F)(F)C(F)(F)C(F)(F)C(F)(F)C(F)(F)C(F)(F)C(F)(F)C(F)(F)F` [Perfluorooctanesulfonic acid], for which, under setting [2], the chemical recovery worked out at 26.8 ± 0.38%.
As for `O=C(O)C(F)(F)C(F)(F)C(F)(F)C(F)(F)C(F)(F)C(F)(F)C(F)(F)F` [Perfluorooctanoic acid], the chemical recovery was determined as 30.2 ± 2.8% under setting [2], 33.6 ± 8.8% under setting [4] and 89.3 ± 19% under setting [3].
Take `O=S(=O)(O)C(F)(F)C(F)(F)C(F)(F)C(F)(F)C(F)(F)F` [Perfluoropentanesulfonic-acid]: the chemical recovery reads like this: under setting [1], 47.1 ± 4.2%; under setting [2], 36.5 ± 4.8%; under setting [3], 72.9 ± 3.6%.
For `O=C(O)C(F)(F)C(F)(F)C(F)(F)C(F)(F)F` [Perfluoropentanoic-acid] the same measures were 32.1 ± 3.4%, 31.1 ± 3.3% and 78.1 ± 8.5%.
In the case of `O=C(O)C(F)(F)C(F)(F)F` [Perfluoropropanoic-acid], the chemical recovery was found to be 2.17 ± 0.57% under setting [1], 3.57 ± 2.9% under setting [2] and 86.2 ± 7.5% under setting [3].
For `O=C(O)C(F)(F)C(F)(F)C(F)(F)C(F)(F)C(F)(F)C(F)(F)C(=O)O` [Perfluorosuberic-acid-] the same measures were 0.975 ± 0.36%, 5.56 ± 1.8% and 71.9 ± 7.3%.
For `O=C(O)C(F)(F)C(F)(F)C(F)(F)C(F)(F)C(F)(F)C(F)(F)C(F)(F)C(F)(F)C(F)(F)C(F)(F)C(F)(F)C(F)(F)C(F)(F)F` [Perfluorotetradecanoic acid], the chemical recovery under setting [3] was 41.3 ± 11%.
On to `O=C(O)C(F)(F)C(F)(F)C(F)(F)C(F)(F)C(F)(F)C(F)(F)C(F)(F)C(F)(F)C(F)(F)C(F)(F)F` [Perfluoroundecanoic-acid], for which, under setting [2], the chemical recovery turned out to be 26.8 ± 6%.
